Key:
MDA-MB-231 [1] = assay: Cell cycle arrest in human MDA-MB-231 cells assessed as accumulation of cells at G1 phase incubated for 24 hrs by RNase A/PI staining based flow cytometric analysis relative to control; format: functional
MDA-MB-231 [2] = assay: Induction of oxidative stress on human MDA-MB-231 cells assessed as increase in ROS population at 30 nM preincubated with compound for 24 hrs followed by 540 nm light irradiation for 1 hrs by CM-H2DCFDA staining based analysis (reference value: 1.6%); format: functional; details: time 25 hrs
[3] = Emission property of the compound by fluorescence spectrophotometer analysis; format: physicochemical
MDA-MB-231 [4] = assay: Cell cycle arrest in human MDA-MB-231 cells assessed as accumulation of cells at G1 phase at 15 nM preincubated with compound for 15 mins followed by light irradiation and measured after 3 to 24 hrs by RNase A/PI staining based flow cytometric analysis (reference value: 65.7%); format: functional; details: time 195-1455 min
[5] = Fluorescence property of the compound assessed as fluorescence quantum yield in EtOH; format: physicochemical
MDA-MB-231 [6] = assay: Cell cycle arrest in human MDA-MB-231 cells assessed as accumulation of cells at G2/M phase incubated for 24 hrs by RNase A/PI staining based flow cytometric analysis relative to control; format: functional
MDA-MB-231 [7] = assay: Induction of apoptosis in human MDA-MB-231 cells assessed as late apoptotic cells at 30 nM preincubated with compound for 24 hrs followed by 540 nm light irradiation for 1 hrs by Annexin V-FITC/PI staining based flow cytometric analysis (reference value: 17.1%); format: functional; details: time 25 hrs
HT-29 = assay: Photocytotoxicity against human HT-29 cells assessed as inhibition of cell growth incubated for 24 hrs by MTT assay; format: functional, cell-based; details: HT-29, 24 h
MDA-MB-231 [8] = assay: Induction of oxidative stress on human MDA-MB-231 cells assessed as increase in ROS population at 15 nM preincubated with compound for 24 hrs followed by 540 nm light irradiation for 1 hrs by CM-H2DCFDA staining based analysis (reference value: 1.6%); format: functional; details: time 25 hrs
MDA-MB-231 [9] = assay: Photocytotoxicity against human MDA-MB-231 cells assessed as inhibition of cell growth incubated for 24 hrs by MTT assay; format: functional, cell-based; details: MDA-MB-231, 24 h
MDA-MB-231 [10] = assay: Induction of apoptosis in human MDA-MB-231 cells assessed as early apoptotic cells at 15 nM incubated for 24 hrs under dark condition by Annexin V-FITC/PI staining based flow cytometric analysis relative to control; format: functional
MDA-MB-231 [11] = assay: Induction of apoptosis in human MDA-MB-231 cells assessed as necrotic cells at 15 nM preincubated with compound for 24 hrs followed by 540 nm light irradiation for 1 hrs by Annexin V-FITC/PI staining based flow cytometric analysis (reference value: 2.7%); format: functional; details: time 25 hrs
MDA-MB-231 [12] = assay: Induction of apoptosis in human MDA-MB-231 cells assessed as late apoptotic cells at 15 nM preincubated with compound for 24 hrs followed by 540 nm light irradiation for 1 hrs by Annexin V-FITC/PI staining based flow cytometric analysis (reference value: 17.1%); format: functional; details: time 25 hrs
MDA-MB-231 [13] = assay: Induction of oxidative stress on human MDA-MB-231 cells assessed as increase in ROS population incubated for 24 hrs under dark condition by CM-H2DCFDA staining based analysis relative to control; format: functional
MCF7 = assay: Photocytotoxicity against human MCF7 cells assessed as inhibition of cell growth incubated for 24 hrs by MTT assay; format: functional, cell-based; details: MCF7, 24 h
MDA-MB-231 [14] = assay: Cell cycle arrest in human MDA-MB-231 cells assessed as accumulation of cells at G1 phase at 30 nM preincubated with compound for 15 mins followed by light irradiation and measured after 3 to 24 hrs by RNase A/PI staining based flow cytometric analysis (reference value: 65.7%); format: functional; details: time 195-1455 min
[15] = Drug localization in mitochondria of human MDA-MB-231 cells incubated for 1 hrs by Mitotracker deep red/Hoechst staining based confocal microscopic analysis; format: ADME; details: mda-mb-231, 1 h
MDA-MB-231 [16] = assay: Induction of apoptosis in human MDA-MB-231 cells assessed as necrotic cells at 15 nM incubated for 24 hrs under dark condition by Annexin V-FITC/PI staining based flow cytometric analysis relative to control; format: functional
MDA-MB-231 [17] = assay: Cell cycle arrest in human MDA-MB-231 cells assessed as accumulation of cells at S phase incubated for 24 hrs by RNase A/PI staining based flow cytometric analysis relative to control; format: functional
MDA-MB-231 [18] = assay: Cell cycle arrest in human MDA-MB-231 cells assessed as accumulation of cells at G2/M phase at 30 nM preincubated with compound for 15 mins followed by light irradiation and measured after 3 to 24 hrs by RNase A/PI staining based flow cytometric analysis (reference value: 12.9%); format: functional; details: time 195-1455 min
[19] = Absorption property of the compound assessed as decay lifetime; format: physicochemical
[20] = Absorption property of the compound by UV-vis spectrophotometer; format: physicochemical
MDA-MB-231 [21] = assay: Cell cycle arrest in human MDA-MB-231 cells assessed as accumulation of cells at S phase at 15 nM preincubated with compound for 15 mins followed by light irradiation and measured after 3 to 24 hrs by RNase A/PI staining based flow cytometric analysis (reference value: 16.4%); format: functional; details: time 195-1455 min
MDA-MB-231 [22] = assay: Cell cycle arrest in human MDA-MB-231 cells assessed as accumulation of cells at S phase at 30 nM preincubated with compound for 15 mins followed by light irradiation and measured after 3 to 24 hrs by RNase A/PI staining based flow cytometric analysis (reference value: 16.4%); format: functional; details: time 195-1455 min
MDA-MB-231 [23] = assay: Induction of apoptosis in human MDA-MB-231 cells assessed as early apoptotic cells at 30 nM preincubated with compound for 24 hrs followed by 540 nm light irradiation for 1 hrs by Annexin V-FITC/PI staining based flow cytometric analysis (reference value: 19.2%); format: functional; details: time 25 hrs
[24] = Photocytotoxicity against human MCF-10A cells assessed as inhibition of cell growth incubated for 24 hrs by MTT assay; format: toxicity, cell-based
[25] = Photosensitizing ability of the compound in MeOH assessed as singlet oxygen generation at 408 nm measured upto 120 sec by DPBF based assay; format: functional
MDA-MB-231 [26] = assay: Induction of apoptosis in human MDA-MB-231 cells assessed as early apoptotic cells at 15 nM preincubated with compound for 24 hrs followed by 540 nm light irradiation for 1 hrs by Annexin V-FITC/PI staining based flow cytometric analysis (reference value: 19.2%); format: functional; details: time 25 hrs
MDA-MB-231 [27] = assay: Induction of apoptosis in human MDA-MB-231 cells assessed as necrotic cells at 30 nM preincubated with compound for 24 hrs followed by 540 nm light irradiation for 1 hrs by Annexin V-FITC/PI staining based flow cytometric analysis (reference value: 2.7%); format: functional; details: time 25 hrs
[28] = Absorption property of the compound assessed as molar extinction co-effecient by UV-vis spectrophotometer; format: physicochemical
HCT-116 = assay: Photocytotoxicity against human HCT-116 cells assessed as inhibition of cell growth incubated for 24 hrs by MTT assay; format: functional, cell-based; details: HCT-116, 24 h
MDA-MB-231 [29] = assay: Cell cycle arrest in human MDA-MB-231 cells assessed as accumulation of cells at G2/M phase at 15 nM preincubated with compound for 15 mins followed by light irradiation and measured after 3 to 24 hrs by RNase A/PI staining based flow cytometric analysis (reference value: 12.9%); format: functional; details: time 195-1455 min
MDA-MB-231 [30] = assay: Induction of apoptosis in human MDA-MB-231 cells assessed as late apoptotic cells at 15 nM incubated for 24 hrs under dark condition by Annexin V-FITC/PI staining based flow cytometric analysis relative to control; format: functional
[31] = Absorption property of the compound assessed as triplet quantum yield by UV-vis spectrophotometer; format: physicochemical

Structure (SMILES): CC1=C(I)C(C)=[N+]2C1=C(c1ccc(OCc3cn(CCOCCOCCOCCNC(=O)CCCCC4SCC5NC(=O)NC54)nn3)cc1)c1c(C)c(I)c(C)n1[B-]2(F)F (centres undefined)
- Activity (MDA-MB-231 [1]): 64.8%
- Activity (MDA-MB-231 [2]): 62.3%
- Activity [3]: 551 nm
- Activity (MDA-MB-231 [4]): 59%
- Activity [5]: 0.032
- Activity (MDA-MB-231 [6]): 13.7%
- Activity (MDA-MB-231 [7]): 43%
- IC50 (HT-29): 27.5 nM
- Activity (MDA-MB-231 [8]): 41.6%
- IC50 (MDA-MB-231 [9]): 18.7 nM
- Activity (MDA-MB-231 [10]): 13%
- Activity (MDA-MB-231 [11]): 7.3%
- Activity (MDA-MB-231 [12]): 30%
- Activity (MDA-MB-231 [13]): 14.2%
- IC50 (MCF7): 21.8 nM
- Activity (MDA-MB-231 [14]): 62.2%
- Drug uptake [15]: Active
- Activity (MDA-MB-231 [16]): 3%
- Activity (MDA-MB-231 [17]): 17.7%
- Activity (MDA-MB-231 [18]): 22.9%
- Time [19]: 3.6 microsec
- Activity [20]: 534 nm
- Activity (MDA-MB-231 [21]): 15.5%
- Activity (MDA-MB-231 [22]): 14.7%
- Activity (MDA-MB-231 [23]): 8.3%
- IC50 at 24 h [24]: 196 nM
- Activity [25]: 0.33
- Activity (MDA-MB-231 [26]): 22.4%
- Activity (MDA-MB-231 [27]): 21.4%
- Activity [28]: 123000 M⁻¹ cm⁻¹
- IC50 (HCT-116): 22.5 nM
- Activity (MDA-MB-231 [29]): 21.8%
- Activity (MDA-MB-231 [30]): 10.4%
- Activity [31]: 0.4
